{"source": "patent US20060039869A1", "about": "“Intranasal delivery of antipsychotic drugs” (priority 2004, published 2006)", "key": {"[1]": {"details": "for Tmax: healthy subjects n=4, median (range)"}, "[2]": {"details": "cited from earlier work"}, "clinical": {"experiment": "clinical", "details": "human, plasma, 2.5 mg; for Cmax: n=4, mean (CV %)"}}, "note": "Several values for one entry are separate records, joined by “and”; a condition that tells them apart may be missing. Equal values may be shown once. Read-outs that look alike come from different tables or passages of the source.", "data": [{"smiles": "O=C(CCCN1CCC(O)(c2ccc(Cl)cc2)CC1)c1ccc(F)cc1", "note": "[haloperidol lactate, haloperidol]", "values": [{"measurement": "Tmax", "setting": "[1]; IM 2.5 mg", "value": "0.625 (0.25-16) h"}, {"measurement": "Cmax after intranasal dose compared with intramuscular dose", "setting": "[1]; IN 2.5 mg vs IM 2.5 mg", "value": "slightly higher"}, {"measurement": "Tmax", "setting": "[1]; IN 2.5 mg", "value": "0.25 (0.12-0.5) h"}, {"measurement": "Cmax, individual subjects", "setting": "[1]; IN 2.5 mg, single subjects", "value": "16.2 ng/mL and 7.5 to 7.9 ng/mL"}, {"measurement": "time at which haloperidol concentrations reached a peak, individual subjects", "setting": "[1]; IN 2.5 mg, single subjects", "value": "7.5 min and 15 min and 30 min"}, {"measurement": "half-lives, intravenous and intranasal", "setting": "[1]; IV vs IN 2.5 mg", "value": "similar"}, {"measurement": "time of peak plasma concentration", "setting": "[2]; intramuscular administration", "value": "approximately 20 minutes"}, {"measurement": "absolute bioavailability", "setting": "[2]; oral administration", "value": "approximately 65%"}, {"measurement": "AUC(0-inf)", "setting": "clinical; both, im", "value": 81.8, "unit": "ng·h/mL"}, {"measurement": "AUC(0-t)", "setting": "clinical; both, im", "value": 59.7, "unit": "ng·h/mL"}, {"measurement": "MRT", "setting": "clinical; both, im", "value": 16.1, "unit": "h"}, {"measurement": "Tmax", "setting": "clinical; both, im", "value": 0.625, "unit": "h"}, {"measurement": "Vd/F", "setting": "clinical; both, im", "value": 1360, "unit": "L"}, {"measurement": "half-life", "setting": "clinical; both, im", "value": 28.8, "unit": "h"}, {"measurement": "Cmax", "setting": "clinical; both, im, IM 2.5 mg", "value": 8.42, "unit": "ng/mL"}, {"measurement": "bioavailability", "setting": "clinical; both, intramuscular", "value": 134, "unit": "%"}, {"measurement": "AUC(0-inf)", "setting": "clinical; both, iv", "value": 60.4, "unit": "ng·h/mL"}, {"measurement": "AUC(0-t)", "setting": "clinical; both, iv", "value": 50.8, "unit": "ng·h/mL"}, {"measurement": "MRT", "setting": "clinical; both, iv", "value": 12.7, "unit": "h"}, {"measurement": "Tmax", "setting": "clinical; both, iv", "value": 0.25, "unit": "h"}, {"measurement": "Vd", "setting": "clinical; both, iv", "value": 934, "unit": "L"}, {"measurement": "half-life", "setting": "clinical; both, iv", "value": 17.1, "unit": "h"}, {"measurement": "Cmax", "setting": "clinical; both, iv, IV 2.5 mg", "value": 23.3, "unit": "ng/mL"}, {"measurement": "AUC(0-inf)", "setting": "clinical; both, other: intranasal", "value": 37.9, "unit": "ng·h/mL"}, {"measurement": "AUC(0-t)", "setting": "clinical; both, other: intranasal", "value": 31.7, "unit": "ng·h/mL"}, {"measurement": "MRT", "setting": "clinical; both, other: intranasal", "value": 12.9, "unit": "h"}, {"measurement": "Tmax", "setting": "clinical; both, other: intranasal", "value": 0.25, "unit": "h"}, {"measurement": "Vd/F", "setting": "clinical; both, other: intranasal", "value": 1580, "unit": "L"}, {"measurement": "bioavailability", "setting": "clinical; both, other: intranasal", "value": 63.8, "unit": "%"}, {"measurement": "half-life", "setting": "clinical; both, other: intranasal", "value": 16.9, "unit": "h"}, {"measurement": "Cmax", "setting": "clinical; both, other: intranasal, IN 2.5 mg", "value": 9.8, "unit": "ng/mL"}, {"measurement": "Tmax", "setting": "clinical; im", "value": 16, "unit": "h"}]}]}
